{"source": "patent US8809270B2", "about": "“Method for reducing cardiovascular morbidity and mortality in prediaetic patients and patients with type 2 diabetes” (priority 2003, dated 2014)", "key": {"[1]": {"test_system": "type 2 diabetic population inadequately treated with oral drugs", "assay": "Treat-to-Target study (HOE901/4002): lipid data", "type": "in vivo, human", "design": "Triglycerides % reduction from baseline / Triglycerides % reduction from baseline, LANTUS-AMARYL / Non-HDL Cholesterol Total % reduction from baseline / Non-HDL Cholesterol Total % reduction from baseline, LANTUS-AMARYL: concentration or dose not given beside the values; Triglycerides Baseline / Triglycerides Endpoint: unit not given beside the values", "conditions": "for Non-HDL Cholesterol Total % reduction from baseline, LANTUS-AMARYL / Non-HDL Cholesterol Total change at endpoint, LANTUS-AMARYL / Triglycerides % reduction from baseline, LANTUS-AMARYL / Triglycerides change at endpoint, LANTUS-AMARYL: LANTUS (4002 Study) minus AMARYL (two AMARYL studies)", "text": "As a consequence of the excellent glycemic control attained, which set the standard for glycemic control in future trials, the 4002 study results are especially useful as an assessment of Lantus's LANTUS (insulin glargine) effects on lipids."}, "[2]": {"test_system": "US/Canada type 2 diabetic patients", "assay": "Treat-to-Target study: hypoglycemia, bedtime LANTUS vs. NPH insulin", "type": "in vivo, human", "conditions": "single bedtime dose", "protocol": "The ideal basal insulin might be expected to be less worrisome from this standpoint because the circulating insulin produced would target blood glucose elevations throughout the day rather than mealtime fluctuations. […] The “Treat-to-Target” study ^38 in US/Canada type 2 diabetic patients investigated whether a single bedtime dose of Lantus® LANTUS (insulin glargine) vs. NPH insulin (a moderate- to long-acting insulin with a pronounced peak in plasma activity for 4 to 8 hours after injection)^39 would achieve target metabolic control without increasing nocturnal hypoglycemia.\nInsulin has features that make it especially useful in the patient with pronounced diabetic dyslipidemia, as compared to the oral antidiabetic agents usually used as initial pharmacotherapy. […] NPH insulin despite having a prolonged duration of action, has a pronounced peak effect from 3-6 hours after injection, rendering it less suitable in the management of the patient with milder diabetes due to the risk for hypoglycemia."}}, "note": "“Also recorded” adds a separate entry of the source.", "data": [{"substance": "insulin glargine [LANTUS]", "values": [{"measurement": "HDL Baseline", "setting": "[1]; TG baseline range 200-500", "value": 42}, {"measurement": "HDL Endpoint", "setting": "[1]; TG baseline range 200-500", "value": 41}, {"measurement": "Non-HDL Cholesterol Total % reduction from baseline", "setting": "[1]; TG baseline range 200-500", "value": 7, "unit": "%"}, {"measurement": "Non-HDL Cholesterol Total Baseline", "setting": "[1]; TG baseline range 200-500", "value": 167}, {"measurement": "Non-HDL Cholesterol Total Endpoint", "setting": "[1]; TG baseline range 200-500", "value": 155}, {"measurement": "Triglycerides % reduction from baseline", "setting": "[1]; TG baseline range 200-500", "value": 25, "unit": "%"}, {"measurement": "Triglycerides Baseline", "setting": "[1]; TG baseline range 200-500", "value": 288}, {"measurement": "Triglycerides Endpoint", "setting": "[1]; TG baseline range 200-500", "value": 232}, {"measurement": "Non-HDL Cholesterol Total % reduction from baseline, LANTUS-AMARYL", "setting": "[1]; TG baseline range 200-500", "value": 4, "unit": "%"}, {"measurement": "Non-HDL Cholesterol Total change at endpoint, LANTUS-AMARYL", "setting": "[1]; TG baseline range 200-500", "value": 5.8}, {"measurement": "Triglycerides % reduction from baseline, LANTUS-AMARYL", "setting": "[1]; TG baseline range 200-500", "value": 13, "unit": "%"}, {"measurement": "Triglycerides change at endpoint, LANTUS-AMARYL", "setting": "[1]; TG baseline range 200-500", "value": 21.7}, {"measurement": "HDL Baseline", "setting": "[1]; TG baseline range 300-500", "value": 40}, {"measurement": "HDL Endpoint", "setting": "[1]; TG baseline range 300-500", "value": 40}, {"measurement": "Non-HDL Cholesterol Total % reduction from baseline", "setting": "[1]; TG baseline range 300-500", "value": 15, "unit": "%"}, {"measurement": "Non-HDL Cholesterol Total Baseline", "setting": "[1]; TG baseline range 300-500", "value": 180}, {"measurement": "Non-HDL Cholesterol Total Endpoint", "setting": "[1]; TG baseline range 300-500", "value": 152}, {"measurement": "Triglycerides % reduction from baseline", "setting": "[1]; TG baseline range 300-500", "value": 34, "unit": "%"}, {"measurement": "Triglycerides Baseline", "setting": "[1]; TG baseline range 300-500", "value": 362}, {"measurement": "Triglycerides Endpoint", "setting": "[1]; TG baseline range 300-500", "value": 240}, {"measurement": "Non-HDL Cholesterol Total % reduction from baseline, LANTUS-AMARYL", "setting": "[1]; TG baseline range 300-500", "value": 12, "unit": "%"}, {"measurement": "Non-HDL Cholesterol Total change at endpoint, LANTUS-AMARYL", "setting": "[1]; TG baseline range 300-500", "value": 21.9}, {"measurement": "Triglycerides % reduction from baseline, LANTUS-AMARYL", "setting": "[1]; TG baseline range 300-500", "value": 16, "unit": "%"}, {"measurement": "Triglycerides change at endpoint, LANTUS-AMARYL", "setting": "[1]; TG baseline range 300-500", "value": 52.5}, {"measurement": "HDL Baseline", "setting": "[1]; TG baseline range 300-1000", "value": 37}, {"measurement": "HDL Endpoint", "setting": "[1]; TG baseline range 300-1000", "value": 38}, {"measurement": "Non-HDL Cholesterol Total % reduction from baseline", "setting": "[1]; TG baseline range 300-1000", "value": 10, "unit": "%"}, {"measurement": "Non-HDL Cholesterol Total Baseline", "setting": "[1]; TG baseline range 300-1000", "value": 181}, {"measurement": "Non-HDL Cholesterol Total Endpoint", "setting": "[1]; TG baseline range 300-1000", "value": 163}, {"measurement": "Triglycerides % reduction from baseline", "setting": "[1]; TG baseline range 300-1000", "value": 36, "unit": "%"}, {"measurement": "Triglycerides Baseline", "setting": "[1]; TG baseline range 300-1000", "value": 470}, {"measurement": "Triglycerides Endpoint", "setting": "[1]; TG baseline range 300-1000", "value": 301}, {"measurement": "Non-HDL Cholesterol Total % reduction from baseline, LANTUS-AMARYL", "setting": "[1]; TG baseline range 300-1000", "value": 5, "unit": "%"}, {"measurement": "Non-HDL Cholesterol Total change at endpoint, LANTUS-AMARYL", "setting": "[1]; TG baseline range 300-1000", "value": 8.6}, {"measurement": "Triglycerides % reduction from baseline, LANTUS-AMARYL", "setting": "[1]; TG baseline range 300-1000", "value": 13, "unit": "%"}, {"measurement": "Triglycerides change at endpoint, LANTUS-AMARYL", "setting": "[1]; TG baseline range 300-1000", "value": 63.6}, {"measurement": "HDL Baseline", "setting": "[1]; TG baseline range 500-1000", "value": 33}, {"measurement": "HDL Endpoint", "setting": "[1]; TG baseline range 500-1000", "value": 36}, {"measurement": "Non-HDL Cholesterol Total % reduction from baseline", "setting": "[1]; TG baseline range 500-1000", "value": 8, "unit": "%"}, {"measurement": "Non-HDL Cholesterol Total Baseline", "setting": "[1]; TG baseline range 500-1000", "value": 186}, {"measurement": "Non-HDL Cholesterol Total Endpoint", "setting": "[1]; TG baseline range 500-1000", "value": 171}, {"measurement": "Triglycerides % reduction from baseline", "setting": "[1]; TG baseline range 500-1000", "value": 38, "unit": "%"}, {"measurement": "Triglycerides Baseline", "setting": "[1]; TG baseline range 500-1000", "value": 661}, {"measurement": "Triglycerides Endpoint", "setting": "[1]; TG baseline range 500-1000", "value": 409}, {"measurement": "Non-HDL Cholesterol Total % reduction from baseline, LANTUS-AMARYL", "setting": "[1]; TG baseline range 500-1000", "value": "−2", "unit": "%"}, {"measurement": "Non-HDL Cholesterol Total change at endpoint, LANTUS-AMARYL", "setting": "[1]; TG baseline range 500-1000", "value": "−9.0"}, {"measurement": "Triglycerides % reduction from baseline, LANTUS-AMARYL", "setting": "[1]; TG baseline range 500-1000", "value": 5, "unit": "%"}, {"measurement": "Triglycerides change at endpoint, LANTUS-AMARYL", "setting": "[1]; TG baseline range 500-1000", "value": 34.4}, {"measurement": "LDL Baseline", "setting": "[1]; TG baseline range All", "value": 113}, {"measurement": "LDL Endpoint", "setting": "[1]; TG baseline range All", "value": 110}, {"measurement": "reduction in fasting TG levels", "setting": "[1]; all patients", "value": 24, "unit": "%"}, {"measurement": "reduction in fasting TG levels", "setting": "[1]; elevations of 500 mg/dL or more", "value": 38, "unit": "%"}, {"measurement": "reduction in fasting TG levels", "setting": "[1]; fasting TG in the 300-499 mg/dL range", "value": 34, "unit": "%"}, {"measurement": "hypoglycemia vs. NPH", "setting": "[2]", "value": "significant reductions in nocturnal hypoglycemia; also recorded: significant advantages over NPH in hypoglycemia"}]}]}
